In ChEMBL document CHEMBL5579806, “Re-exploration of tetrahydro-β-carboline scaffold: Discovery of selective histone deacetylase 6 inhibitors with neurite outgrowth-promoting and neuroprotective activities” (Bioorg Med Chem Lett, 2024):
Calls of active or inactive are those of the source. The calls are words filed in the database; no cut-off is given here.

Legend:
Histone deacetylase 1 = Histone deacetylase 1 (Homo sapiens, UniProt Q13547); assay: Inhibition of human HDAC1 using RHKKAc as substrate by fluorescence based assay
[1] = target: T1, Protein deacetylase HDAC6 (Homo sapiens, UniProt Q9UBN7); assay: Inhibition of human HDAC6 using RHKKAc as substrate by fluorescence based assay
T1 sequence (Q9UBN7 whole entry): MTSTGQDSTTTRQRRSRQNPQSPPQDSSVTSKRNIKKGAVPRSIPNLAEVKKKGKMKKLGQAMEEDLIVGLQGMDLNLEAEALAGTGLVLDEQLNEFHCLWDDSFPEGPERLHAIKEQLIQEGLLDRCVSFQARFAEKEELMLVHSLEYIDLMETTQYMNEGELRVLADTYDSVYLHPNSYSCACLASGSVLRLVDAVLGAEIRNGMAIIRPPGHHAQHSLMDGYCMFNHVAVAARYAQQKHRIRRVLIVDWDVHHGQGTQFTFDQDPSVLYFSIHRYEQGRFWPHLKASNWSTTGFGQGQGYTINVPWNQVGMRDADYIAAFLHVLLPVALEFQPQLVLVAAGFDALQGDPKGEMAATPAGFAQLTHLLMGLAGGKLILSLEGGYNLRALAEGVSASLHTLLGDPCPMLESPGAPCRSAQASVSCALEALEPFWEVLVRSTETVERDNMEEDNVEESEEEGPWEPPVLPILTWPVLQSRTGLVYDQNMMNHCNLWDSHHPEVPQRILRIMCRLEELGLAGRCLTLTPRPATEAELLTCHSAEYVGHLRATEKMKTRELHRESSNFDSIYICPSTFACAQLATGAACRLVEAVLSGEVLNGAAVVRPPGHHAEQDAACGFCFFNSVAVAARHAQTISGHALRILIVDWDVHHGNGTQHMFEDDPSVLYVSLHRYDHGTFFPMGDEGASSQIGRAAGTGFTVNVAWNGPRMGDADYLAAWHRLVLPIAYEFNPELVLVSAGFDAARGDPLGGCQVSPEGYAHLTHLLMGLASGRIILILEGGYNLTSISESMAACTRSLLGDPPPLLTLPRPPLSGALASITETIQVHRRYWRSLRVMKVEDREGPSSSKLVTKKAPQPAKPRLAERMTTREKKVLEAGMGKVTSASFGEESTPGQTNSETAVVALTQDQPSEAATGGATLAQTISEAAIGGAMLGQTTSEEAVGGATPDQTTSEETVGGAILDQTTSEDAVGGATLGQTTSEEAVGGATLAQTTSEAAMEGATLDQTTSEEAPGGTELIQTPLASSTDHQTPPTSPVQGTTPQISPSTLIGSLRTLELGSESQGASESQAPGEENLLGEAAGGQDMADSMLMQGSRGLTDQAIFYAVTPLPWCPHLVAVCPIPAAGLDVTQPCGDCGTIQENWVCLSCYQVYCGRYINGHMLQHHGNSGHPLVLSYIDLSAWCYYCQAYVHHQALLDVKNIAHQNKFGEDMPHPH

Homo sapiens = species: Homo sapiens; assay: Selectivity index, ratio of IC50 for inhibition of human HDAC1 to IC50 for inhibition of human HDAC6
PC-12 [2] = assay: Induction of neurite outgrowth in NGF-induced rat PC-12 cells assessed as increase in percentage of neurite bearing cells at 3 uM relative to control; type: functional
PC-12 [3] = assay: Induction of neurite outgrowth in NGF-induced rat PC-12 cells; type: functional, cell-based; conditions: dose 1-10 µM
PC-12 [4] = assay: Neuroprotective activity against H2O2-induced oxidative stress in rat PC-12 cells assessed as cell viability at 5 uM incubated for 24 hrs (reference value: 62.5 %); type: functional; conditions: read-out: Activity
PC-12 [5] = assay: Neuroprotective activity against H2O2-induced oxidative stress in rat PC-12 cells assessed as increase in cell viability at 5 uM incubated for 24 hrs; type: functional, cell-based
[6] = Neurotoxicity in rat PC-12 cells at 1 to 10 uM; type: toxicity, cell-based; conditions: pc-12, 10 µM, dose 1-10 µM
Histone deacetylase 2 = Histone deacetylase 2 (Homo sapiens, UniProt Q92769); assay: Inhibition of human HDAC2 using RHKKAc as substrate by fluorescence based assay
[7] = target: Histone deacetylase 3/Nuclear receptor corepressor 2 (HDAC3/NCoR2) (Homo sapiens, UniProt O15379); assay: Inhibition of human HDAC3/NCOR2 using RHKKAc as substrate by fluorescence based assay; type: protein-complex assay
Histone deacetylase 5 = Histone deacetylase 5 (Homo sapiens, UniProt Q9UQL6); assay: Inhibition of human HDAC5 using Boc-Lys(trifluoroacetyl)-AMC as substrate by fluorescence based assay
Histone deacetylase 8 = target: T2, Histone deacetylase 8 (Homo sapiens, UniProt Q9BY41); assay: Inhibition of human HDAC8 using RHK(Ac)-K(Ac) as substrate by fluorescence based assay
T2 sequence (Q9BY41 whole entry): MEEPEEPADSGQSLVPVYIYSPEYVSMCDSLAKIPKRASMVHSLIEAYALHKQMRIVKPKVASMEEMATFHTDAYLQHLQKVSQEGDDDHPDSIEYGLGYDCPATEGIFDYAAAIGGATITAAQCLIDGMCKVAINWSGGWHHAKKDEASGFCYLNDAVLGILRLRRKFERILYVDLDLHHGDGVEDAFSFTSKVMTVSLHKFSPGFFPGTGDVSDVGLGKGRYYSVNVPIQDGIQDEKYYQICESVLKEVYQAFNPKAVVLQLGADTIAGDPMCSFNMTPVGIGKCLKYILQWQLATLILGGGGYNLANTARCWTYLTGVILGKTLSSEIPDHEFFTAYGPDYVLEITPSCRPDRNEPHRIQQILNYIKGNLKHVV

PC-12 [8] = assay: Inhibition of HDAC6 in rat PC-12 cells assessed as increase in alpha-tubulin acetylation incubated for 24 hrs by Western blot analysis; type: cell-based; conditions: dose 0.1-1 µM

Histone deacetylase 1, sequence (Q13547 whole entry): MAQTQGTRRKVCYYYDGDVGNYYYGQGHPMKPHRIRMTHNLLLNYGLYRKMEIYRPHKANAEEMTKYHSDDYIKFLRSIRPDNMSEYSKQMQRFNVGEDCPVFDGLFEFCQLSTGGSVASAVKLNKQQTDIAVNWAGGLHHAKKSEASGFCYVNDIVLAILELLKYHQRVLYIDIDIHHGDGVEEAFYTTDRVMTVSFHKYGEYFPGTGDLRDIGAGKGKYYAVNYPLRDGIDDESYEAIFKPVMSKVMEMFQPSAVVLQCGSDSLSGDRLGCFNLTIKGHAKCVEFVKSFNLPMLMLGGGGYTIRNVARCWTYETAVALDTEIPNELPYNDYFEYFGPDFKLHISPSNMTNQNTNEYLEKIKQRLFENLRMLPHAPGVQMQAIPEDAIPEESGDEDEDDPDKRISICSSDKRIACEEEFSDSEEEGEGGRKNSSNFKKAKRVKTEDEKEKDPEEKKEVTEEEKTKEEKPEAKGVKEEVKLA
Histone deacetylase 3/Nuclear receptor corepressor 2 (HDAC3/NCoR2), sequence (O15379 whole entry): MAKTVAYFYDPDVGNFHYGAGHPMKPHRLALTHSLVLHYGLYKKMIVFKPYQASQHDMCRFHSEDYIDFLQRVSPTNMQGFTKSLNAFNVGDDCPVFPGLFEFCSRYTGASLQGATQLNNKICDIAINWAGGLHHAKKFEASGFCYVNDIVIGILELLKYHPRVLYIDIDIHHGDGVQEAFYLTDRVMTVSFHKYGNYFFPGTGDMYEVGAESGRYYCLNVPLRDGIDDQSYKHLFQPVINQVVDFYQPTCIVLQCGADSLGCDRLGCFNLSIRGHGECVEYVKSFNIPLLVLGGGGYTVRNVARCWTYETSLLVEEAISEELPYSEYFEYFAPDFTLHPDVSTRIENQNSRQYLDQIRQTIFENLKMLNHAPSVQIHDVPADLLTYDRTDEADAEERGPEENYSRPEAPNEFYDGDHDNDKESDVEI
Histone deacetylase 3/Nuclear receptor corepressor 2 (HDAC3/NCoR2), sequence (Q9Y618 whole entry, further chain): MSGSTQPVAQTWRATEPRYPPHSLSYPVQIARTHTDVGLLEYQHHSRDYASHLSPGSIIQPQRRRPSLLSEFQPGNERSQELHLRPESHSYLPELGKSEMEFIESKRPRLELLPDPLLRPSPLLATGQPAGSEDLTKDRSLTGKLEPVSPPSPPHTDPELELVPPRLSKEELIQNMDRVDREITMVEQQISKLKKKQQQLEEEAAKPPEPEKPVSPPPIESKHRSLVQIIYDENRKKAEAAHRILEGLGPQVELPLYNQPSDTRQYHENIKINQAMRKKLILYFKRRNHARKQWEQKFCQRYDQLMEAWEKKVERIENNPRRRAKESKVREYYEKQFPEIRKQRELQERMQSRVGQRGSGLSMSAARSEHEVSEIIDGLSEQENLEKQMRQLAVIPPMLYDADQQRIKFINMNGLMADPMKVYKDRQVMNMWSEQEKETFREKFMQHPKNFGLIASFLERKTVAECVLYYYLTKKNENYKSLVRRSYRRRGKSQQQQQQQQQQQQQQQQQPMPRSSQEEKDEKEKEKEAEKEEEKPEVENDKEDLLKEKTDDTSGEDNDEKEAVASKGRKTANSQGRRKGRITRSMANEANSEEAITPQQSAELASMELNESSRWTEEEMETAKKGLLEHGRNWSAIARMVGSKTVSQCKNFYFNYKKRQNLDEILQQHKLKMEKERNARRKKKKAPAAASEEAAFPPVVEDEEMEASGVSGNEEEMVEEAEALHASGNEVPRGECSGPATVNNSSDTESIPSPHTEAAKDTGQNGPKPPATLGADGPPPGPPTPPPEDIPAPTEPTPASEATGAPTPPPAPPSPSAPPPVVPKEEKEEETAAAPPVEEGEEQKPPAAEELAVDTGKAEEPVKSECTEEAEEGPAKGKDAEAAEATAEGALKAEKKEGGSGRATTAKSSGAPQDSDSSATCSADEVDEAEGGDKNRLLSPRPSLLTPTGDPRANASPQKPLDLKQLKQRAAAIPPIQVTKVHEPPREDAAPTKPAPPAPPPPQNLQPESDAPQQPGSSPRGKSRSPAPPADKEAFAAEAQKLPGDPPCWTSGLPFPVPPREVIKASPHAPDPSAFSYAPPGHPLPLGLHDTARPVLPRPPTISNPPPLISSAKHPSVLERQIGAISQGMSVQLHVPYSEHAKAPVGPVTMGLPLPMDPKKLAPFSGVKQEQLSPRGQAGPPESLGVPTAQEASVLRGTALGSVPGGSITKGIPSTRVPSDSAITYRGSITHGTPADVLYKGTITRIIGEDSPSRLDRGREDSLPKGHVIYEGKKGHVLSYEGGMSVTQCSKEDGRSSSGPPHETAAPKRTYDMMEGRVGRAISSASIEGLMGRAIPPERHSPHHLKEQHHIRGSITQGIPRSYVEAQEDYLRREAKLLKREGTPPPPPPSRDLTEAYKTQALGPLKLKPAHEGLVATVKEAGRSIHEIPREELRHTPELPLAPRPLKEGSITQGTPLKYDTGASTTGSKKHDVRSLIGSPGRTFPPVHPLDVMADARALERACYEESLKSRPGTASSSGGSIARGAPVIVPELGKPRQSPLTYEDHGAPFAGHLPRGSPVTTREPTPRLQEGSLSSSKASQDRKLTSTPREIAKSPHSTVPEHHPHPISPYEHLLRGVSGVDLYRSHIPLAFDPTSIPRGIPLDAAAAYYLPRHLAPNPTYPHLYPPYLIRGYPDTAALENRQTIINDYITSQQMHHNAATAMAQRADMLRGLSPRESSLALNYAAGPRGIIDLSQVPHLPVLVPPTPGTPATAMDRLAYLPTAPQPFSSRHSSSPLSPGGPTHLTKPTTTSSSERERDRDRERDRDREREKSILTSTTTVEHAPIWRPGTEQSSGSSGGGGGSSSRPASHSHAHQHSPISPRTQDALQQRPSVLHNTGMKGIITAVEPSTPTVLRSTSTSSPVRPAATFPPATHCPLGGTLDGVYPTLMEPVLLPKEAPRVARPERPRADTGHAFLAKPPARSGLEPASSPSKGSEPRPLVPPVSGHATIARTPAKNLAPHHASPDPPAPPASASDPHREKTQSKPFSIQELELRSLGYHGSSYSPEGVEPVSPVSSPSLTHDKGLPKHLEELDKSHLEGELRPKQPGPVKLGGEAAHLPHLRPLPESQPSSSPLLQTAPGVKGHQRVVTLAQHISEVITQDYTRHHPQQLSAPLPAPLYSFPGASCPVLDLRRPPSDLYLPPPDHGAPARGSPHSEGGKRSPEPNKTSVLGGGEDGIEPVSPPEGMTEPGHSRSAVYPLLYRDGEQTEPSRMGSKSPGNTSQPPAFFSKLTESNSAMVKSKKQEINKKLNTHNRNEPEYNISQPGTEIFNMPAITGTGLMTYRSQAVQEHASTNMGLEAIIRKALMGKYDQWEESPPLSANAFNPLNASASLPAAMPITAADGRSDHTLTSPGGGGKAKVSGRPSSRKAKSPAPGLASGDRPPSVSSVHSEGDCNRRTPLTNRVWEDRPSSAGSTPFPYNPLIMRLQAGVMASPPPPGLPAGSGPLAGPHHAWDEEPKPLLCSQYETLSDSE
Histone deacetylase 2, sequence (Q92769 whole entry): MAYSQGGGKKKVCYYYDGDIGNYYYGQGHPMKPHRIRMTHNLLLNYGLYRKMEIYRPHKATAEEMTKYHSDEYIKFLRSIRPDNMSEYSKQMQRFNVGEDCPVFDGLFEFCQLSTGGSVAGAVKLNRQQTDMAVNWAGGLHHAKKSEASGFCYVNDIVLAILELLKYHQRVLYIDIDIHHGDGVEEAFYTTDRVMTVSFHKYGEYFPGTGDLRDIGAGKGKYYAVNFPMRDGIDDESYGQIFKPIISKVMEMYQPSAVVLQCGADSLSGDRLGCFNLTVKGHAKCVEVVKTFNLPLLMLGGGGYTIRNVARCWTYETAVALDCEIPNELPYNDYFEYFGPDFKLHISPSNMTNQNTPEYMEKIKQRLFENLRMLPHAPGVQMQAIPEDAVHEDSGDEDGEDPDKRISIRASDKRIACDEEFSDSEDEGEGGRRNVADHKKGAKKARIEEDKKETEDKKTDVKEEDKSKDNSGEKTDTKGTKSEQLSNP
Histone deacetylase 5, sequence (Q9UQL6 whole entry): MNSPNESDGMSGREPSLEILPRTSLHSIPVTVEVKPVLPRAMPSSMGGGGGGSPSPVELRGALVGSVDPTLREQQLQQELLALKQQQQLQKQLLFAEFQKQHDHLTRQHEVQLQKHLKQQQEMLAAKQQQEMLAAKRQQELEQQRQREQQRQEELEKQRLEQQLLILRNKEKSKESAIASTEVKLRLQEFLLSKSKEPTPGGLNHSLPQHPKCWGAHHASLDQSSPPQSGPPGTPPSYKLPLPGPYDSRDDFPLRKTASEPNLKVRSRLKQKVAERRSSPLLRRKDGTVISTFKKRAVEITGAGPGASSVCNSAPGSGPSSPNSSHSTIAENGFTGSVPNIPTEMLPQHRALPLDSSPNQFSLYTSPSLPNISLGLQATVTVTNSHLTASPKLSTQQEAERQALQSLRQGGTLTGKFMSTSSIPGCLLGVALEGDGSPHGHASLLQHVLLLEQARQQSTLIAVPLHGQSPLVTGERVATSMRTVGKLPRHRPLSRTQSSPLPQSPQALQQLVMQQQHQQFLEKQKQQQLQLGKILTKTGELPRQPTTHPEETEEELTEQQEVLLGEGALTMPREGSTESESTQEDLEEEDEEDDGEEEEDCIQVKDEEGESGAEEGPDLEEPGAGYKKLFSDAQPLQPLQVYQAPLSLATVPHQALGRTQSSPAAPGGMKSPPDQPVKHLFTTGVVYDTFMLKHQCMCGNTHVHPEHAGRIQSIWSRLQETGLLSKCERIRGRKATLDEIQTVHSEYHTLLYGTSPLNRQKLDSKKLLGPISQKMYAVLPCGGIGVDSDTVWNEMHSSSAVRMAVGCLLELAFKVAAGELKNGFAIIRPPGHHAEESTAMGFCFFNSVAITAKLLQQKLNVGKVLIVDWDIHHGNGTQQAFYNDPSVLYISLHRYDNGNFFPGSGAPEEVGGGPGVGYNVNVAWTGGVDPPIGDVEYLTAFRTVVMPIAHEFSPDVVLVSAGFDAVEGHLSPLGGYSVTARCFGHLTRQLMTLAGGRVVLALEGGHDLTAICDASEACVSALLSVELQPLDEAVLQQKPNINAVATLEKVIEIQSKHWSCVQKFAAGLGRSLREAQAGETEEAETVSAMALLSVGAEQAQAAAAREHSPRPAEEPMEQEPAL

Row | SMILES | IC50 (Histone deacetylase 1) | IC50 [1] | Ratio IC50 (Homo sapiens) | Activity (PC-12 [2]) | Activity (PC-12 [3]) | viability at 5 µM (PC-12 [4]) | Activity (PC-12 [5]) | Activity [6] | IC50 (Histone deacetylase 2) | IC50 [7] | IC50 (Histone deacetylase 5) | IC50 (Histone deacetylase 8) | inhibition (PC-12 [8])
1 | COc1ccc(CN2[C@H](C)c3[nH]c4ccccc4c3C[C@H]2C(=O)NCc2ccc(C(=O)NO)cc2)cc1 | > 10000 nM | 34.2 nM | – | – | – | – | – | – | – | – | – | – | –
2 | O=C(NO)c1ccc(CNC(=O)[C@@H]2Cc3c([nH]c4ccccc34)[C@@H](C3CC3)N2Cc2ccccc2)cc1 | 1700 nM | 12.7 nM | 134 | 23.3% | Dose-Dependent Effect | > 85% | – | – | – | – | – | – | –
3 | CN1CCc2c(c3ccccc3n2Cc2ccc(C(=O)NO)cc2)C1 [TUBASTATIN A] | – | – | – | 26.7% | – | 77.6% | – | – | – | – | – | – | –
4 | O=C(NO)c1ccc(CNC(=O)[C@@H]2Cc3c([nH]c4ccccc34)[C@@H](c3ccc(Cl)cc3)N2)cc1 | 770 nM | 5.61 nM | 137 | 23.3% | – | – | inactive | – | – | – | – | – | –
5 | O=C(NO)c1ccc(CNC(=O)[C@@H]2Cc3c([nH]c4ccccc34)[C@@H](C3CCCC3)N2)cc1 | 204 nM | 4.54 nM | 45 | 23.3% | – | – | inactive | – | – | – | – | – | –
6 | O=C(NO)c1ccc(CNC(=O)[C@@H]2Cc3c([nH]c4ccccc34)[C@@H](C3CC3)N2Cc2ccc(Cl)cc2)cc1 | 1740 nM | 11.2 nM | 155 | 23.3% | Dose-Dependent Effect | 92.5% | – | – | – | – | – | – | –
7 | O=C(NO)c1ccc(CNC(=O)[C@@H]2Cc3c([nH]c4ccccc34)[C@@H](c3ccc4c(c3)OCO4)N2)cc1 | 216 nM | 2 nM | 108 | 46.4% | – | – | inactive | Toxic | – | – | – | – | –
8 | O=C(NO)c1ccc(CNC(=O)[C@@H]2Cc3c([nH]c4ccccc34)[C@@H](c3ccccc3)N2)cc1 | 742 nM | 5.3 nM | 140 | 23.3% | – | – | inactive | – | – | – | – | – | –
9 | O=C(NO)c1ccc(CNC(=O)[C@@H]2Cc3c([nH]c4ccccc34)[C@@H](c3ccc(Cl)cc3)N2CC2CC2)cc1 | 1280 nM | – | – | 47.1% | Dose-Dependent Effect | 99.6% | – | – | 1440 nM | 1660 nM | > 10 µM | > 10 µM | Dose-Dependent Effect
10 | COc1ccc(CN2[C@H](C(=O)NCc3ccc(C(=O)NO)cc3)Cc3c([nH]c4ccccc34)[C@H]2C2CC2)cc1 | – | – | – | 23.3% | Dose-Dependent Effect | > 85% | – | – | – | – | – | – | –
11 | O=C(NO)c1ccc(CNC(=O)[C@@H]2Cc3c([nH]c4ccccc34)[C@@H](C3CC3)N2)cc1 | 118 nM | 3.25 nM | 36 | 23.3% | – | – | inactive | – | – | – | – | – | –
12 | COc1ccc([C@H]2N[C@H](C(=O)NCc3ccc(C(=O)NO)cc3)Cc3c2[nH]c2ccccc32)cc1OC | 390 nM | – | – | 23.3% | – | – | inactive | – | – | – | – | – | –
